Some test systems named below: SN12C renal; DU-145 prostate; UO-31 renal; HCT-15 colon; CCRF-CEM leukemia; MDA-MB-231 breast; SW-620 colon; SK-OV-3 ovarian; NCI-H522 lung; RXF 393 renal.
Holding throughout (assay): NCI tumour cell line growth inhibition, 48 h

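All cell lines were grown in 96-well plates and treated with compound for 48 hours. GI50 = concentration required for 50% inhibition of growth. TGI: total growth inhibition.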

In the case of `CS[C@@]1(C(=O)Nc2ccc3[nH]nc(-c4ccc(OC(C)C)nc4)c3c2)CCN(CC(=O)N2CC=C(c3ccc(-c4ncn(C)n4)cc3)CC2)C1`, the GI50 with SN12C renal was more than 100 µM; with DU-145 prostate, more than 100 µM; in the assay with UO-31 renal, 1.01 µM; in the assay on HCT-15 colon, 2.27 µM; in the assay with CCRF-CEM leukemia it was 12.5 µM; in the assay with MDA-MB-231 breast, 0.38 µM. The GI50 in the assay with SW-620 colon is 0.201 µM; in the assay on SK-OV-3 ovarian it was more than 100 µM; in the assay with NCI-H522 lung it was more than 51.2 µM. Besides, the TGI with SN12C renal, with DU-145 prostate, in the assay on UO-31 renal, in the assay with HCT-15 colon, with CCRF-CEM leukemia and in the assay on MDA-MB-231 breast was more than 100 µM in each case. In addition, the TGI with SW-620 colon, in the assay on SK-OV-3 ovarian and in the assay on NCI-H522 lung was more than 100 µM each time.

`C=C(C)[C@@H]1CC[C@]2(C)[C@H](C=CC3=C4C[C@@](C)(CO)CC[C@]4(C)CC[C@]32C)[C@@]1(C)CCCN`: the GI50 with SN12C renal was 1.64 µM; in the assay on DU-145 prostate it was 1.72 µM; in the assay with UO-31 renal, 1.34 µM; in the assay on RXF 393 renal, 1.62 µM; in the assay on HCT-15 colon, 1.53 µM; with CCRF-CEM leukemia, 2.12 µM. For the same compound, the values for the GI50 in the assay with MDA-MB-231 breast, with SW-620 colon and in the assay on SK-OV-3 ovarian were 1.77 µM, 1.56 µM and 1.72 µM, respectively. Also, the TGI is 3.15 µM with SN12C renal; 3.15 µM with DU-145 prostate; 2.65 µM in the assay on UO-31 renal; 3.07 µM with RXF 393 renal; 2.92 µM in the assay with HCT-15 colon; 5.56 µM with CCRF-CEM leukemia. In addition, the TGI is 3.27 µM in the assay with MDA-MB-231 breast, 3.04 µM in the assay with SW-620 colon and 3.17 µM in the assay on SK-OV-3 ovarian.

On to `Cc1sc(/N=C2/NC(=O)CS2)nc1-c1nc(/N=C2/NC(=O)CS2)sc1C`, for which the GI50 with SN12C renal, in the assay on DU-145 prostate, in the assay with UO-31 renal, in the assay on RXF 393 renal, in the assay on HCT-15 colon and in the assay on MDA-MB-231 breast was more than 50 µM throughout. Moreover, the GI50 in the assay on SW-620 colon and in the assay with NCI-H522 lung was more than 50 µM throughout. In addition, the TGI with SN12C renal, in the assay on DU-145 prostate, in the assay with UO-31 renal, with RXF 393 renal, in the assay on HCT-15 colon and in the assay on MDA-MB-231 breast was more than 50 µM throughout. For the same compound, the TGI in the assay on SW-620 colon and in the assay with NCI-H522 lung was more than 50 µM in each case.

In the case of `Oc1[nH]c2ccc(Cl)cc2c1/C=c1/ccc2c(c1)N=C(c1cc(F)cc(F)c1)N=2`, the GI50 with SN12C renal was 5.41 µM; in the assay with DU-145 prostate, 4.82 µM; with UO-31 renal, 87.3 µM; with RXF 393 renal it was 3.37 µM; in the assay on HCT-15 colon, 3.96 µM; in the assay on MDA-MB-231 breast, 3.85 µM. In addition, the GI50 in the assay with SK-OV-3 ovarian is 31.9 µM; with NCI-H522 lung, 2.14 µM. The TGI is more than 100 µM in the assay on SN12C renal; more than 100 µM with DU-145 prostate; more than 100 µM in the assay with UO-31 renal; 9.88 µM with RXF 393 renal; more than 100 µM in the assay on HCT-15 colon; more than 100 µM in the assay on MDA-MB-231 breast. Besides, the figures for the TGI in the assay on SK-OV-3 ovarian and in the assay with NCI-H522 lung were more than 100 µM and 5.74 µM, respectively.

In the case of `O=C1c2ccccc2C(=O)c2c(NC(=O)c3ccc4c5c(ncnc35)-c3ccccc3C4=O)cccc21`, the TGI in the assay on SN12C renal was more than 100 µM; in the assay with DU-145 prostate it was more than 100 µM; with UO-31 renal, more than 100 µM; in the assay with RXF 393 renal, 49.1 µM; in the assay with HCT-15 colon, more than 100 µM; in the assay with MDA-MB-231 breast, more than 100 µM. For the same compound, the TGI was more than 100 µM in the assay on SW-620 colon, 48.2 µM in the assay with SK-OV-3 ovarian and more than 100 µM with NCI-H522 lung.

Regarding `CCN(CC)c1ccc2nc3c4ccccc4c(=NC(=O)c4ccccc4-c4c5ccc(N(CC)CC)cc5[o+]c5cc(N(CC)CC)ccc45)cc-3oc2c1`, the GI50 was 2.13 µM in the assay with SN12C renal; 1.75 µM in the assay with DU-145 prostate; 1.49 µM with UO-31 renal; 1.42 µM in the assay with HCT-15 colon; 2.1 µM in the assay on CCRF-CEM leukemia; 1.99 µM with MDA-MB-231 breast. In addition, the GI50 in the assay with SW-620 colon is 2.54 µM; with SK-OV-3 ovarian, 12.3 µM; in the assay with NCI-H522 lung, 3.14 µM. Further, the TGI with SN12C renal came to 6.14 µM; in the assay with DU-145 prostate, 3.46 µM; in the assay on UO-31 renal, 15 µM; in the assay on HCT-15 colon it was 3.9 µM; in the assay with CCRF-CEM leukemia, 13.4 µM; in the assay with MDA-MB-231 breast, 8.91 µM. The figures for the TGI in the assay with SW-620 colon, in the assay with SK-OV-3 ovarian and in the assay on NCI-H522 lung were more than 22.5 µM, 26.6 µM and 21.9 µM, respectively.

As to `O=C(/C=C/c1cccc(B(O)O)c1)c1cccc(B(O)O)c1`, the GI50 is 1.7 µM in the assay on SN12C renal; 1.83 µM in the assay with DU-145 prostate; 1.71 µM in the assay on UO-31 renal; 1.55 µM in the assay on HCT-15 colon; 0.445 µM in the assay with CCRF-CEM leukemia; 1.58 µM in the assay on MDA-MB-231 breast. In addition, the GI50 with SW-620 colon is 0.765 µM; in the assay on SK-OV-3 ovarian, 3.16 µM; in the assay on NCI-H522 lung it was 1.51 µM. For the same compound, the TGI in the assay on SN12C renal is 3.61 µM; in the assay on DU-145 prostate, 3.79 µM; with UO-31 renal it was 3.36 µM; with HCT-15 colon, 4.3 µM; in the assay on CCRF-CEM leukemia it was 2.67 µM; in the assay with MDA-MB-231 breast, 3.17 µM. The TGI in the assay with SW-620 colon was 2.31 µM; in the assay on SK-OV-3 ovarian, 11.6 µM; in the assay on NCI-H522 lung, 3.02 µM.
